Experimental data taken from article PMC10088252.
Where two headings read alike, the source gives them in different places.

## O=C(Nc1ccc(Oc2ccnc3c2CCN3)c(F)c1)c1c[nH]cc(-c2ccc(F)cc2)c1=O
450 mg QD (n=12)
  TRAE Hyperhidrosis, grade 3-4: 0 n (%)
  TRAE Hyperlipidaemia, any grade: 0 n (%)
  TRAE Hyperlipidaemia, grade 3-4: 0 n (%)
  TRAE Hypertension, any grade: 0 n (%)
  TRAE Hypertension, grade 3-4: 0 n (%)
  TRAE Hypoaesthesia oral, any grade: 2 (16.7) n (%)
  TRAE Hypoaesthesia oral, grade 3-4: 0 n (%)
  TRAE Hypocalcaemia, any grade: 0 n (%)
  TRAE Hypocalcaemia, grade 3-4: 0 n (%)
  TRAE Hypotension, any grade: 0 n (%)
  TRAE Hypotension, grade 3-4: 0 n (%)
  TRAE Insomnia, any grade: 0 n (%)
  TRAE Insomnia, grade 3-4: 0 n (%)
  TRAE Leukopenia, any grade: 1 (8.3) n (%)
  TRAE Leukopenia, grade 3-4: 0 n (%)
  TRAE Nausea, any grade: 0 n (%)
  TRAE Nausea, grade 3-4: 0 n (%)
  TRAE Neuritis, any grade: 0 n (%)
  TRAE Neuritis, grade 3-4: 0 n (%)
  TRAE Occult blood, any grade: 1 (8.3) n (%)
  TRAE Occult blood, grade 3-4: 0 n (%)
  TRAE Oedema peripheral, any grade: 1 (8.3) n (%)
  TRAE Oedema peripheral, grade 3-4: 0 n (%)
  TRAE Onycholysis, any grade: 1 (8.3) n (%)
  TRAE Onycholysis, grade 3-4: 0 n (%)
  TRAE Oropharyngeal pain, any grade: 0 n (%)
  TRAE Oropharyngeal pain, grade 3-4: 0 n (%)
  TRAE PPE, any grade: 3 (25.0) n (%)
  TRAE PPE, grade 3-4: 1 (8.3) n (%)
  TRAE Paraesthesia, any grade: 1 (8.3) n (%)
  TRAE Paraesthesia, grade 3-4: 0 n (%)
  TRAE Proteinuria, any grade: 3 (25.0) n (%)
  TRAE Proteinuria, grade 3-4: 1 (8.3) n (%)
  TRAE Pruritus, any grade: 1 (8.3) n (%)
  TRAE Pruritus, grade 3-4: 0 n (%)
  TRAE Rash maculo-papular, any grade: 0 n (%)
  TRAE Rash maculo-papular, grade 3-4: 0 n (%)
  TRAE Sinus tachycardia, any grade: 0 n (%)
  TRAE Sinus tachycardia, grade 3-4: 0 n (%)
  TRAE Skin fissures, any grade: 0 n (%)
  TRAE Skin fissures, grade 3-4: 0 n (%)
  TRAE Supraventricular extrasystoles, any grade: 0 n (%)
  TRAE Supraventricular extrasystoles, grade 3-4: 0 n (%)
  TRAE Thrombocytopenia, any grade: 0 n (%)
  TRAE Thrombocytopenia, grade 3-4: 0 n (%)
  TRAE Upper respiratory tract infection, any grade: 0 n (%)
  TRAE Upper respiratory tract infection, grade 3-4: 0 n (%)
  TRAE Urinary retention, any grade: 0 n (%)
  TRAE Urinary retention, grade 3-4: 0 n (%)
  TRAE Urinary tract infection, any grade: 1 (8.3) n (%)
  TRAE Urinary tract infection, grade 3-4: 0 n (%)
  TRAE Ventricular arrhythmia, any grade: 1 (8.3) n (%)
  TRAE Ventricular arrhythmia, grade 3-4: 0 n (%)
  TRAE Ventricular extrasystoles, any grade: 0 n (%)
  TRAE Ventricular extrasystoles, grade 3-4: 0 n (%)
  TRAE Vomiting, any grade: 1 (8.3) n (%)
  TRAE Vomiting, grade 3-4: 0 n (%)
  TRAE Weight loss, any grade: 0 n (%)
  TRAE Weight loss, grade 3-4: 0 n (%)
450 mg QD cohort
  patients with TEAE of pulmonary infection leading to death, deemed unrelated: One
600 mg QD (n=10)
  TRAE Accessory nerve disorder, any grade: 0 n (%)
  TRAE Accessory nerve disorder, grade 3-4: 0 n (%)
  TRAE Activated partial thromboplastin time prolonged, any grade: 0 n (%)
  TRAE Activated partial thromboplastin time prolonged, grade 3-4: 0 n (%)
  TRAE Anaemia, any grade: 1 (10.0) n (%)
  TRAE Anaemia, grade 3-4: 0 n (%)
  TRAE Anaesthesia oral, any grade: 1 (10.0) n (%)
  TRAE Anaesthesia oral, grade 3-4: 0 n (%)
  TRAE Arrhythmia, any grade: 1 (10.0) n (%)
  TRAE Arrhythmia, grade 3-4: 0 n (%)
  TRAE Arthralgia, any grade: 0 n (%)
  TRAE Arthralgia, grade 3-4: 0 n (%)
  TRAE Asthenia, any grade: 3 (30.0) n (%)
  TRAE Asthenia, grade 3-4: 1 (10.0) n (%)
  TRAE Blister, any grade: 0 n (%)
  TRAE Blister, grade 3-4: 0 n (%)
  TRAE Chest discomfort, any grade: 0 n (%)
  TRAE Chest discomfort, grade 3-4: 0 n (%)
  TRAE Chronic kidney disease, any grade: 0 n (%)
  TRAE Chronic kidney disease, grade 3-4: 0 n (%)
  TRAE Constipation, any grade: 1 (10.0) n (%)
  TRAE Constipation, grade 3-4: 0 n (%)
  TRAE Cough, any grade: 1 (10.0) n (%)
  TRAE Cough, grade 3-4: 0 n (%)
  TRAE Decreased Ccr, any grade: 2 (20.0) n (%)
  TRAE Decreased Ccr, grade 3-4: 0 n (%)
  TRAE Decreased appetite, any grade: 1 (10.0) n (%)
  TRAE Decreased appetite, grade 3-4: 1 (10.0) n (%)
  TRAE Diarrhoea, any grade: 1 (10.0) n (%)
  TRAE Diarrhoea, grade 3-4: 0 n (%)
  TRAE Dizziness, any grade: 0 n (%)
  TRAE Dizziness, grade 3-4: 0 n (%)
  TRAE Dry mouth, any grade: 0 n (%)
  TRAE Dry mouth, grade 3-4: 0 n (%)
  TRAE Dysgeusia, any grade: 5 (50.0) n (%)
  TRAE Dysgeusia, grade 3-4: 1 (10.0) n (%)
  TRAE Dyskinesia, any grade: 1 (10.0) n (%)
  TRAE Dyskinesia, grade 3-4: 1 (10.0) n (%)
  TRAE Dysphonia, any grade: 1 (10.0) n (%)
  TRAE Dysphonia, grade 3-4: 0 n (%)
  TRAE Dyspnoea, any grade: 1 (10.0) n (%)
  TRAE Dyspnoea, grade 3-4: 1 (10.0) n (%)
  TRAE Electrocardiogram QT prolonged, any grade: 0 n (%)
  TRAE Electrocardiogram QT prolonged, grade 3-4: 0 n (%)
  TRAE Elevated ALT, any grade: 3 (30.0) n (%)
  TRAE Elevated ALT, grade 3-4: 0 n (%)
  TRAE Elevated AST, any grade: 1 (10.0) n (%)
  TRAE Elevated AST, grade 3-4: 0 n (%)
  TRAE Elevated D dimer, any grade: 1 (10.0) n (%)
  TRAE Elevated D dimer, grade 3-4: 0 n (%)
  TRAE Elevated GGT, any grade: 0 n (%)
  TRAE Elevated GGT, grade 3-4: 0 n (%)
  TRAE Elevated LDH, any grade: 0 n (%)
  TRAE Elevated LDH, grade 3-4: 0 n (%)
  TRAE Elevated alpha-HBDH, any grade: 0 n (%)
  TRAE Elevated alpha-HBDH, grade 3-4: 0 n (%)
  TRAE Elevated bilirubin, any grade: 2 (20.0) n (%)
  TRAE Elevated bilirubin, grade 3-4: 0 n (%)
  TRAE Elevated blood creatinine, any grade: 1 (10.0) n (%)
  TRAE Elevated blood creatinine, grade 3-4: 0 n (%)
  TRAE Elevated creatine phosphokinase, any grade: 0 n (%)
  TRAE Elevated creatine phosphokinase, grade 3-4: 0 n (%)
  TRAE Elevated serum urea, any grade: 0 n (%)
  TRAE Elevated serum urea, grade 3-4: 0 n (%)
  TRAE Elevated troponin, any grade: 0 n (%)
  TRAE Elevated troponin, grade 3-4: 0 n (%)
  TRAE Genital rash, any grade: 1 (10.0) n (%)
  TRAE Genital rash, grade 3-4: 0 n (%)
  TRAE Haematuria, any grade: 0 n (%)
  TRAE Haematuria, grade 3-4: 0 n (%)
  TRAE Headache, any grade: 0 n (%)
  TRAE Headache, grade 3-4: 0 n (%)
  TRAE Hyperhidrosis, any grade: 0 n (%)
  TRAE Hyperhidrosis, grade 3-4: 0 n (%)
  TRAE Hyperlipidaemia, any grade: 0 n (%)
  TRAE Hyperlipidaemia, grade 3-4: 0 n (%)
  TRAE Hypertension, any grade: 2 (20.0) n (%)
  TRAE Hypertension, grade 3-4: 1 (10.0) n (%)
  TRAE Hypoaesthesia oral, any grade: 0 n (%)
  TRAE Hypoaesthesia oral, grade 3-4: 0 n (%)
  TRAE Hypocalcaemia, any grade: 1 (10.0) n (%)
  TRAE Hypocalcaemia, grade 3-4: 0 n (%)
  TRAE Hypotension, any grade: 0 n (%)
  TRAE Hypotension, grade 3-4: 0 n (%)
  TRAE Insomnia, any grade: 0 n (%)
  TRAE Insomnia, grade 3-4: 0 n (%)
  TRAE Leukopenia, any grade: 1 (10.0) n (%)
  TRAE Leukopenia, grade 3-4: 0 n (%)
  TRAE Nausea, any grade: 0 n (%)
  TRAE Nausea, grade 3-4: 0 n (%)
  TRAE Neuritis, any grade: 2 (20.0) n (%)
  TRAE Neuritis, grade 3-4: 0 n (%)
  TRAE Occult blood, any grade: 1 (10.0) n (%)
  TRAE Occult blood, grade 3-4: 0 n (%)
  TRAE Oedema peripheral, any grade: 1 (10.0) n (%)
  TRAE Oedema peripheral, grade 3-4: 0 n (%)
  TRAE Onycholysis, any grade: 0 n (%)
  TRAE Onycholysis, grade 3-4: 0 n (%)
  TRAE Oropharyngeal pain, any grade: 1 (10.0) n (%)
  TRAE Oropharyngeal pain, grade 3-4: 1 (10.0) n (%)
  TRAE PPE, any grade: 1 (10.0) n (%)
  TRAE PPE, grade 3-4: 0 n (%)
  TRAE Paraesthesia, any grade: 0 n (%)
  TRAE Paraesthesia, grade 3-4: 0 n (%)
  TRAE Proteinuria, any grade: 1 (10.0) n (%)
  TRAE Proteinuria, grade 3-4: 0 n (%)
  TRAE Pruritus, any grade: 0 n (%)
  TRAE Pruritus, grade 3-4: 0 n (%)
